Reference: PubChem BioAssay AID248 (DTP/NCI, 2004)
Inconclusive results and toxic doses are left out. No stated cut-off is given here; in the data, active means T/C of 150% or more; inactive means T/C below 125%.

Test system: L1210 leukemia ip in BDF1 mice, survival T/C
Experiment: NCI In Vivo Anticancer Drug Screen. Data for tumor model L1210 Leukemia (intraperitoneal) in B6D2F1 (BDF1) mice
Settings: endpoint: mean survival time, higher = longer survival
Outline: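 Antitumor effect is assessed in tumor-bearing animals. Survival in the compound arm is compared with a vehicle-dosed control arm and expressed as their quotient.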

[1] = dose: 100.0 mg/kg/injection, schedule: Q01DX009 (ip), vehicle: Klucel (hydroxypropylcellulose) (HPC)
[2] = dose: 200.0 mg/kg/injection, schedule: Q01DX009 (ip), vehicle: Klucel (hydroxypropylcellulose) (HPC)
[3] = dose: 400.0 mg/kg/injection, schedule: Q01DX009 (ip), vehicle: Klucel (hydroxypropylcellulose) (HPC)

Measured: T/C

O=C1Nc2ccccc2C1=Nc1cccc2ncccc12
inactive: dose: 100.0 mg/kg/injection, schedule: Q01DX001 (ip), vehicle: acetone 97 % of control | dose: 200.0 mg/kg/injection, schedule: Q01DX001 (ip), vehicle: acetone 93 % of control | dose: 400.0 mg/kg/injection, schedule: Q01DX001 (ip), vehicle: acetone 100 % of control

CCCCC(=O)N(CC)C(=NCC)c1ccc(NC(=O)c2ccc(C(=O)Nc3ccc(C(=NCC)N(CC)C(=O)CCCC)cc3)cc2)cc1
inactive: dose: 25.0 mg/kg/injection, schedule: Q01DX015 (ip), vehicle: methylcellulose (MC) 90 % of control | dose: 50.0 mg/kg/injection, schedule: Q01DX015 (ip), vehicle: methylcellulose (MC) 90 % of control | dose: 100.0 mg/kg/injection, schedule: Q01DX015 (ip), vehicle: methylcellulose (MC) 96 % of control | dose: 200.0 mg/kg/injection, schedule: Q01DX015 (ip), vehicle: methylcellulose (MC) 94 % of control

COc1ccc(OC(=O)Nc2ccc([N+](=O)[O-])cc2OC)cc1
inactive: [1] 96 % of control | [2] 95 % of control | [3] 101 % of control

Cc1cc(C)c(S(=O)(=O)O)cc1[N+](=O)[O-]
inactive: [1] 96 % of control | [2] 101 % of control | [3] 98 % of control

CCNC(=O)NCc1ccc(C)cc1
inactive: dose: 100.0 mg/kg/injection, schedule: Q04DX002 (ip), vehicle: Klucel (hydroxypropylcellulose) (HPC) 102 % of control | dose: 200.0 mg/kg/injection, schedule: Q04DX002 (ip), vehicle: Klucel (hydroxypropylcellulose) (HPC) 105 % of control | dose: 400.0 mg/kg/injection, schedule: Q04DX002 (ip), vehicle: Klucel (hydroxypropylcellulose) (HPC) 112 % of control

CCOc1ccc(/C=N\N=C\c2ccc(OCC)cc2)cc1
inactive: [1] 89 % of control | dose: 100.0 mg/kg/injection, schedule: Q04DX003 (ip), vehicle: Klucel (hydroxypropylcellulose) (HPC) 93 % of control | dose: 400.0 mg/kg/injection, schedule: Q04DX003 (ip), vehicle: Klucel (hydroxypropylcellulose) (HPC) 97 % of control

CC(=O)c1cc(C)c(C)s1
inactive: dose: 12.5 mg/kg/injection, schedule: Q01DX009 (ip), vehicle: saline with Tween-80 107 % of control | dose: 25.0 mg/kg/injection, schedule: Q01DX009 (ip), vehicle: saline with Tween-80 110 % of control | dose: 50.0 mg/kg/injection, schedule: Q01DX009 (ip), vehicle: saline with Tween-80 100 % of control | dose: 100.0 mg/kg/injection, schedule: Q04DX003 (ip), vehicle: saline with Tween-80 90 % of control | dose: 200.0 mg/kg/injection, schedule: Q01DX009 (ip), vehicle: saline with Tween-80 86 % of control | dose: 200.0 mg/kg/injection, schedule: Q04DX003 (ip), vehicle: saline with Tween-80 96 % of control
